Assay results from patent US11524966B1 (Valo Early Discovery, Inc., priority 2017, dated 2022).

Biological target: T1, USP28 (His-tagged USP28-FL-mammalian) (Homo sapiens, UniProt Q96RU2)
T1 construct: Expression of USP28 (1-1077)-TEV-6*His (pTT5 vector); made in house; host or cells: Expi293f cells (pTT5 vector)
T1 sequence (Q96RU2 1-1077): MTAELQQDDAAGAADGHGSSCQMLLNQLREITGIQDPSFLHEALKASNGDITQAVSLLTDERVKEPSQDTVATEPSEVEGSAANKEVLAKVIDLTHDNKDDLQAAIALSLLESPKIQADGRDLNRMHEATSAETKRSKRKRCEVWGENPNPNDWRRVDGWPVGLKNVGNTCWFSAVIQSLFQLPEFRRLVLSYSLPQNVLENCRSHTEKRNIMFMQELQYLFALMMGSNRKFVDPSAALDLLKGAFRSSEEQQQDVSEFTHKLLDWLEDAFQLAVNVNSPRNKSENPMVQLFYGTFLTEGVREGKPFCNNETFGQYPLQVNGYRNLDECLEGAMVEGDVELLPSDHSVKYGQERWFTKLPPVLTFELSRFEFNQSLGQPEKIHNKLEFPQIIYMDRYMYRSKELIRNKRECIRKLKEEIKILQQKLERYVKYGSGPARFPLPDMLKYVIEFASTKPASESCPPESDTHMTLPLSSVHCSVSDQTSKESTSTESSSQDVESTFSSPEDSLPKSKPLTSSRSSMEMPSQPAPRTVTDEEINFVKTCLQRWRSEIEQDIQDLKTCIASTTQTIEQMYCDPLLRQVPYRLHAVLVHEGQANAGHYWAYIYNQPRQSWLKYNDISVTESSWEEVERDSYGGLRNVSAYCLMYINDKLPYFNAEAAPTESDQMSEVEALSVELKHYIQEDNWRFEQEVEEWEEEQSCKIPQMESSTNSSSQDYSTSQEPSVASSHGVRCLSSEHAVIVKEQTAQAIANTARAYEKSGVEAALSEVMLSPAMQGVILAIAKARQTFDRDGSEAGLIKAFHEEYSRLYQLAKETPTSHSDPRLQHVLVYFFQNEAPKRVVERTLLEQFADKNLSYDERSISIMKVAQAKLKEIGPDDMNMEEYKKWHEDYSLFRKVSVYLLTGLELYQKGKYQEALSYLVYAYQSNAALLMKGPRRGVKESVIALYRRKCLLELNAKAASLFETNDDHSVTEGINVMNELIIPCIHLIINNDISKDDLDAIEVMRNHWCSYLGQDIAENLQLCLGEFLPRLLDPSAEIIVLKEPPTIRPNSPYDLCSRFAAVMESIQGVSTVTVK
Assay: Ubiquitin-Rhodamine 110 Assay for USP28 Activity, Example A-1(a)
Type: biochemical
Settings: Ubiquitin-Rhodamine 110 assay, Example A-1(a); read-out: USP28 A-1(a) IC50 range
Method in brief: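 Full-length His-tagged human USP28 (1-1077, Expi293f-expressed), […], with 25 nM Ub-Rh110 (<<Km) in pH 8.0 Tris buffer with BME, BGG, Triton X-100. 10-point dilutions (25 μM-1.3 nM), 45 min at room temperature, citric acid stop, fluorescence 485/535 nm; IC50 by 4-parameter fit.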

SMILES | IC50
Cc1cnc2c(N)c(C(=O)N[C@H]3CCc4cc(N5CCNC[C@@H](O)C5)ccc4C3)sc2n1 (single isomer, unassigned) [Example 7-4] | 50 to 200 nM
Cc1cnc2c(N)c(C(=O)N[C@H]3COc4cc(N5CCNCC5)cc(F)c4C3)sc2n1 [Example 10-10, (R)-7-amino-N-(5-fluoro-7-(piperazin-1-yl)chroman-3-yl)-3-methylthieno[2,3-b]pyrazine-6-carboxamide] | 1 to 50 nM
Cc1cnc2c(N)c(C(=O)N[C@H]3CCc4cc(N5CC6CCC(C5)N6)ccc4C3)sc2n1 (single isomer, unassigned) [Example 11-7] | 50 to 200 nM
Cc1ccc2c(N)c(C(=O)N[C@@H]3CCc4cc(N5CCNCC5)cc(F)c4C3)sc2n1 (single isomer, unassigned) [Example 11-12] | 1 to 50 nM
Cc1ccc2c(N)c(C(=O)N[C@H]3CCc4cc(N5CC6CCC(C5)N6)ccc4C3)sc2n1 [Example 11-1, N-((2S)-6-(3,8-diazabicyclo[3.2.1]octan-3-yl)-1,2,3,4-tetrahydronaphthalen-2-yl)-3-amino-6-methylthieno[2,3-b]pyridine-2-carboxamide] | 1 to 50 nM
COc1ccc2c(N)c(C(=O)N[C@H]3CCc4cc(N5CC6CCC(C5)N6)ccc4C3)sc2n1 (single isomer, unassigned) [Example 11-5] | 1 to 50 nM
CCn1ccc2cc(C(=O)N[C@@H]3CCc4cc(N5CC6CCC(C5)N6)ccc4C3)cnc21 (single isomer, unassigned) [Example 11-10] | 50 to 200 nM
Cc1ccc2c(N)c(C(=O)N[C@H]3COc4cc(N5CCNCC5)cc(F)c4C3)sc2n1 [Example 10-1, (R)-3-amino-N-(5-fluoro-7-(piperazin-1-yl)chroman-3-yl)-6-methylthieno[2,3-b]pyridine-2-carboxamide] | 1 to 50 nM
Cc1cnc2c(N)c(C(=O)N[C@@H]3CCc4cc(N5CCNC[C@H](O)C5)ccc4C3)sc2n1 (single isomer, unassigned) [Example 7-7] | 200 to 2000 nM
COc1ccc2c(N)c(C(=O)N[C@@H]3CCc4cc(N5CC6CCC(C5)N6)ccc4C3)sc2n1 (single isomer, unassigned) [Example 11-6] | 200 to 2000 nM
Cc1cc(C)c2c(N)c(C(=O)N[C@H]3COc4cc(N5CCNCC5)cc(F)c4C3)sc2n1 [Example 10-9, (R)-3-amino-N-(5-fluoro-7-(piperazin-1-yl)chroman-3-yl)-4,6-dimethylthieno[2,3-b]pyridine-2-carboxamide] | 1 to 50 nM
Cc1nc2sc(C(=O)N[C@@H]3CCc4cc(N5CC6CCC(C5)N6)ccc4C3)c(N)c2cc1F (single isomer, unassigned) [Example 11-4] | 1 to 50 nM
CCn1ccc2cc(C(=O)N[C@@H]3CCc4cc(N5CC6CCC(C5)N6)ccc4C3)nnc21 (single isomer, unassigned) [Example 11-23] | 200 to 2000 nM
Cc1ccc2c(N)c(C(=O)N[C@H]3COc4cc(O[C@H]5COC6(CNC6)C5)ccc4C3)sc2n1 (single isomer, unassigned) [Example 9-2] | 1 to 50 nM
COc1ccc2c(N)c(C(=O)N[C@H]3COc4cc(N5CCNCC5)cc(F)c4C3)sc2n1 [Example 10-11, (R)-3-amino-N-(5-fluoro-7-(piperazin-1-yl)chroman-3-yl)-6-methoxythieno[2,3-b]pyridine-2-carboxamide] | 1 to 50 nM
Cc1ccc2c(N)c(C(=O)N[C@H]3COc4cc(O[C@@H]5COC6(CNC6)C5)ccc4C3)sc2n1 (single isomer, unassigned) [Example 9-1] | 1 to 50 nM
CCn1ccc2cc(C(=O)N[C@H]3CCc4cc(N5CC6CCC(C5)N6)ccc4C3)nnc21 (single isomer, unassigned) [Example 11-24] | 200 to 2000 nM
Cc1cnc2c(N)c(C(=O)N[C@@H]3CCc4cc(N5CCNC[C@@H](O)C5)ccc4C3)sc2n1 (single isomer, unassigned) [Example 7-5] | 50 to 200 nM
CO[C@@H]1CN(c2cc(F)c3c(c2)OC[C@H](NC(=O)c2sc4nc(C)ccc4c2N)C3)C[C@H]1N [Example 10-2, 3-amino-N-((R)-7-((3R,4R)-3-amino-4-methoxypyrrolidin-1-yl)-5-fluorochroman-3-yl)-6-methylthieno[2,3-b]pyridine-2-carboxamide] | 1 to 50 nM
[2H]C1([2H])NC([2H])([2H])C([2H])([2H])N(c2cc(F)c3c(c2)OC[C@H](NC(=O)c2sc4nc(C)ccc4c2N)C3)C1([2H])[2H] [Example 10-4, (R)-3-amino-N-(5-fluoro-7-(piperazin-l-yl-2,2,3,3,5,5,6,6-d8)chroman-3-yl)-6-methylthieno[2,3-b]pyridine-2-carboxamide] | 1 to 50 nM
Cc1ccc2c(N)c(C(=O)N(C)[C@H]3COc4cc(N5CCNCC5)cc(F)c4C3)sc2n1 [Example 10-15, 3-amino-N-[(3R)-5-fluoro-7-(piperazin-1-yl)-3,4-dihydro-2H-1-benzopyran-3-yl)-N,6-dimethylthieno[2,3-b]pyridine-2-carboxamide] | > 2000 nM

Same assay, conditions: Ubiquitin-Rhodamine 110 assay, format Example A-1(a); read-out: USP28 A-1(a) IC50 range

SMILES | IC50
Cc1ccc2c(N)c(C(=O)N[C@H]3COc4c(cnc(N5CC6CCC(C5)N6)c4F)C3)sc2n1 [Example 18, N-((3R)-7-(3,8-Diazabicyclo[3.2.1]octan-3-yl)-8-fluoro-3,4-dihydro-2H-pyrano[3,2-c]pyridin-3-yl)-3-amino-6-methylthieno[2,3-b]pyridine-2-carboxamide] | 1 to 50 nM
Cc1ccc2c(N)c(C(=O)N[C@@H]3COc4c(F)c(N5CC6CCC(C5)N6)cc(F)c4C3)sc2n1 (single isomer, unassigned) [Example 13-2] | 200 to 2000 nM
Cc1ccc2c(N)c(C(=O)N[C@@H]3COc4cc(N5CC6CCC(C5)N6)c(F)c(F)c4C3)sc2n1 [Example 13-4, N-((3S)-7-(3,8-diazabicyclo[3.2.1]octan-3-yl)-5,6-difluorochroman-3-yl)-3-amino-6-methylthieno[2,3-b]pyridine-2-carboxamide] | 1 to 50 nM
Cc1ccc2c(N)c(C(=O)N[C@H]3CCc4c(ccc(N5CCNCC5)c4F)C3)sc2n1 (single isomer, unassigned) [Example 21-6] | 200 to 2000 nM
Cc1ccc2c(N)c(C(=O)N[C@@H]3CCc4c(F)c(N5CCNCC5)cc(F)c4C3)sc2n1 (single isomer, unassigned) [Example 22-2] | 1 to 50 nM
Cc1ccc2c(N)c(C(=O)N[C@H]3COc4cc(N5CC6CCC(C5)N6)nc(F)c4C3)sc2n1 [Example 17, N-((3R)-7-(3,8-Diazabicyclo[3.2.1]octan-3-yl)-5-fluoro-3,4-dihydro-2H-pyrano[3,2-c]pyridin-3-yl)-3-amino-6-methylthieno[2,3-b]pyridine-2-carboxamide] | 1 to 50 nM
Cc1ccc2c(N)c(C(=O)N[C@H]3CCc4c(F)c(N5CCNCC5)cc(F)c4C3)sc2n1 (single isomer, unassigned) [Example 22-1] | 200 to 2000 nM
CO[C@H]1CN(c2ccc3c(n2)CC[C@H](NC(=O)c2sc4nc(C)cnc4c2N)C3)C[C@@H]1N (single isomer, unassigned) [Example 23-1] | 200 to 2000 nM
Cc1ccc2c(N)c(C(=O)N[C@@H]3COc4cc(N5CCNCC5)c(Cl)cc4C3)sc2n1 (single isomer, unassigned) [Example 13-6] | 1 to 50 nM
Cc1ccc2c(N)c(C(=O)N[C@H]3CCc4cc(N5C6CNCC5C6)ccc4C3)sc2n1 (single isomer, unassigned) [Example 11-35] | 1 to 50 nM
Cc1ccc2c(N)c(C(=O)N[C@@H]3COc4c(ccc(N5CCNCC5)c4Cl)C3)sc2n1 [Example 13-8, (S)-3-amino-N-(8-chloro-7-(piperazin-1-yl)chroman-3-yl)-6-methylthieno[2,3-b]pyridine-2-carboxamide] | 200 to 2000 nM
Cc1ccc2c(N)c(C(=O)N[C@H]3COc4cc(N5CCNCC5)ncc4C3)sc2n1 [Example 16, (R)-3-Amino-6-methyl-N-(7-(piperazin-1-yl)-3,4-dihydro-2H-pyrano[3,2-c]pyridin-3-yl)thieno[2,3-b]pyridine-2-carboxamide] | 1 to 50 nM
Cc1ccc2c(N)c(C(=O)N[C@@H]3CCc4cc(N5CCNCC5)cnc4C3)sc2n1 (single isomer, unassigned) [Example 15-1] | > 2000 nM
Cc1ccc2c(N)c(C(=O)N[C@@H]3CCc4c(ccc(N5CC6CCC(C5)N6)c4F)C3)sc2n1 (single isomer, unassigned) [Example 21-1] | 50 to 200 nM
